Test results: ChEMBL document CHEMBL5512655, “Discovery of indolylacryloyl-derived oxacins as novel potential broad-spectrum antibacterial candidates” (Eur J Med Chem, 2024)
Converted amounts (≈) assume the structure as drawn. The source made the active and inactive calls. The calls are words filed in the database; no cut-off is given here.

How the values were obtained:
[1] = tested on: Escherichia coli; test: Antibacterial activity against Escherichia coli assessed as reduction in bacterial burden at 2 to 4 times of MIC measured within 5 hrs by time-dependent kinetics assay; type: functional, organism-based
[2] = tested on: Calf thymus DNA; test: Binding affinity to calf thymus DNA by acridine orange staining based competitive binding assay; type: nucleic-acid assay; details: Bos taurus
[3] = tested on: Cell membrane; test: Induction of cytoplasmic membrane integrity loss in methicillin-resistant Staphylococcus aureus N315 assessed as increase in fluorescence intensity at 0.5 to 6 times of MIC by Propidium iodide method; type: cell membranes
[4] = tested on: Staphylococcus aureus; test: Reduction in metabolic activity in methicillin-resistant Staphylococcus aureus N315 at 6 times of MIC by Alamar Blue assay relative to control; type: functional; parameters: scale not given: the % may be the effect or the level left
[5] = tested on: Calf thymus DNA; test: Binding affinity to calf thymus DNA assessed as hypochromism by spectroscopic analysis; type: nucleic-acid assay; details: Bos taurus
[6] = tested on: Escherichia coli; test: Reduction in metabolic activity in Escherichia coli at 6 times of MIC by Alamar Blue assay relative to control; type: functional; parameters: scale not given: the % may be the effect or the level left
[7] = tested on: Staphylococcus aureus; test: Antibacterial activity against methicillin-resistant Staphylococcus aureus N315 assessed as resistance development by measuring compound concentration required to inhibit measured after 18 generations; type: functional
[8] = tested on: Staphylococcus aureus; test: Induction of lipid peroxidation in methicillin-resistant Staphylococcus aureus N315 assessed as malondialdehyde (MDA) level production at 4 time of MIC; type: functional, organism-based
[9] = tested on: Escherichia coli; test: Antibacterial activity against Escherichia coli ATCC 25922 assessed as inhibition of bacterial growth measured after 24 hrs incubation; type: functional
[10] = tested on: Escherichia coli; test: Antibacterial activity against Escherichia coli assessed as resistance development measured after 11 generations; type: functional, organism-based
[11] = tested on: Escherichia coli; test: Antibacterial activity against Escherichia coli assessed as resistance development measured after 18 generations; type: functional, organism-based
[12] = tested on: Klebsiella pneumoniae; test: Antibacterial activity against Klebsiella pneumonia assessed as inhibition of bacterial growth measured after 24 hrs incubation; type: functional
[13] = tested on: Escherichia coli; test: Reduction in metabolic activity in Escherichia coli by Alamar Blue assay; type: functional, organism-based
[14] = tested on: Escherichia coli; test: Antibacterial activity against Escherichia coli assessed as resistance development by measuring compound concentration required to inhibit measured after 18 generations; type: functional
[15] = tested on: Staphylococcus aureus; test: Antibacterial activity against methicillin-resistant Staphylococcus aureus N315 assessed as reduction in bacterial burden at 2 to 4 times of MIC measured upto 7 hrs by time-dependent kinetics assay; type: functional, organism-based

Compound: CCOC(=O)Cn1cc(/C=C(\C#N)C(=O)N2CCN(c3cc4c(cc3F)c(=O)c(C(=O)O)cn4CC)CC2)c2ccccc21
- Activity [1]: Active
- Activity [2]: Active
- Activity [3]: Active
- Activity [4]: >50%
- Activity [5]: Active
- Activity [6]: >50%
- MIC [7]: 64 µg/mL (≈ 107 µM)
- Activity [8]: Active
- MIC [9]: 0.5 µg/mL (≈ 0.834 µM)
- Activity [10]: inactive
- Activity [11]: Active
- MIC [12]: 0.5 µg/mL (≈ 0.834 µM)
- Activity [13]: Dose-Dependent Effect
- MIC [14]: 32 µg/mL (≈ 53.4 µM)
- Activity [15]: Active
